Test system: batrachotoxin (BTX) binding site (binding site 2) of the sodium channel
Assay: Bond test on the sodium channel, binding site 2 (BTX bond), [3H]-batrachotoxinin A20 α-benzoate displacement
Conditions: rat cerebrocortex synaptosomes

Row | SMILES | BTX bond, 10 μM, % inhibition [%] | BTX bond, 10 μM, % inhibition (10 µM) [%]
1 | O=C(NC1CCCC1OCc1ccccc1)C1=NOC2(CCN(S(=O)(=O)Cc3ccccc3)CC2)C1 (stereo not shown) [Example 20, 8-phenylmethanesulphonyl-1-oxa-2,8-diaza-spiro[4,5]dec-2-ene-3-carboxylic acid (2-benzyloxy-cyclopentyl)-amide] | 69 | –
2 | O=C(C1=NOC2(CCN(S(=O)(=O)Cc3ccccc3)CC2)C1)N1CCN(CCCc2ccccc2)CC1 [Example 69] | 50 | –
3 | O=C(C1=NOC2(CCN(S(=O)(=O)c3cccs3)CC2)C1)N1CCN(CCCc2ccccc2)CC1 [Example 14, [4-(3-phenyl-propyl)-piperazin-l-yl]-[8-(thiophene-2-sulphonyl)-1-oxa-2,8-diaza-spiro[4,5]dec-2-en-3-yl]-methanone] | 79 | –
4 | O=C(C1=NOC2(CCN(S(=O)(=O)Cc3ccccc3)CC2)C1)N1CCN(Cc2ccc3ccccc3c2)CC1 [Example 6, (4-naphthalen-2-ylmethyl-piperazin-l-yl)-(8-phenylmethane-sulphonyl-1-oxa-2,8 diaza-spiro[4,5]dec-2-en-3-yl)-methanone] | 49 | –
5 | C=C(C)CN(CC)C(=O)C1=NOC2(CCN(S(=O)(=O)c3ccc(OC(F)(F)F)cc3)CC2)C1 [Example 103, 8-(4-trifluoromethoxy-benzenesulphonyl)-1-oxa-2,8-diaza-spiro[4,5]dec-2-ene-3carboxylic acid ethyl-(2-methyl-allyl)-amide] | 53 | –
6 | O=C(C1=NOC2(CCN(S(=O)(=O)c3cc(Cl)ccc3Cl)CC2)C1)N(CCc1ccccc1)Cc1ccccc1 [Example 98, 8-(2,5-dichloro-benzenesulphonyl)-1-oxa-2,8-diaza-spiro[4,5]dec-2-ene-3-carboxylic acid benzyl-phenethyl-amide] | 56 | –
7 | CN(C)S(=O)(=O)N1CCC2(CC1)CC(C(=O)N1CCN(C3CCCCCC3)CC1)=NO2 [Example 144, 3-(4-cycloheptyl-piperazine-1-carbonyl)-1-oxa-2,8-diaza-spiro[4,5]dec-2-ene-8 sulphonic acid dimethylamide] | 53 | –
8 | O=C(NCc1cccs1)C1=NOC2(CCN(C(=O)COc3cccc(Cl)c3)CC2)C1 [Example 96, 8-[2-(3-chloro-phenoxy)-acetyl]-1-oxa-2,8-diaza-spiro[4,5]dec-2-ene-3-carboxylic acid (thiophen-2-ylmethyl)-amide] | 72 | –
9 | O=C(NC1CCN(Cc2ccc(C(F)(F)F)cc2)C1)C1=NOC2(CCN(S(=O)(=O)c3cccs3)CC2)C1 (stereo not shown) [Example 26, 8-(thiophene-2-sulphonyl)-1-oxa-2,8-diaza-spiro[4,5]dec-2-ene-3-carboxylic acid [1-(4-trifluoromethyl-benzyl)-pyrrolidin-3-yl]-amide] | 84 | –
10 | CCc1ccc(C(=O)N2CCC3(CC2)CC(C(=O)NCc2cccs2)=NO3)cc1 [Example 52, 8-(4-ethyl-benzoyl)-1-oxa-2,8-diaza-spiro[4,5]dec-2-ene-3-carboxylic acid (thiophen-2-ylmethyl)-amide] | 63 | –
11 | O=C(C1=NOC2(CCN(S(=O)(=O)c3ccc(OC(F)(F)F)cc3)CC2)C1)N1CCN(CCCc2ccccc2)CC1 [Example 176, [4-(3-phenyl-propyl)-piperazin-l-yl]-[8-(4-trifluoromethoxy-benzenesulphonyl)-1-oxa-2,8-diaza-spiro [4,5]dec-2-en-3-yl]-methanone] | 76 | –
12 | CN1CCCC1CCNC(=O)C1=NOC2(CCN(S(=O)(=O)c3ccc(Cl)s3)CC2)C1 (stereo not shown) [Example 61, 8-(5-chloro-thiophene-2-sulphonyl)-1-oxa-2,8-diaza-spiro[4,5]dec-2-ene-3-carboxylic acid [2-(1-methyl-pyrrolidin-2-yl)-ethyl]-amide] | 79 | –
13 | CCOC(=O)C1CCCCN1C(=O)C1=NOC2(CCN(C(=O)c3ccc(C(C)(C)C)cc3)CC2)C1 (stereo not shown) [Example 195, 1-[8-(4-tert-butyl-benzoyl)-1-oxa-2,8-diaza-spiro[4,5]dec-2-ene-3-carbonyl]-piperidine-2-carboxylic acid ethyl ester] | 85 | –
14 | COc1ccc(S(=O)(=O)N2CCC3(CC2)CC(C(=O)NC2CCCC2OCc2ccccc2)=NO3)cc1 (stereo not shown) [Example 121, 8-(4-methoxy-benzenesulphonyl)-1-oxa-2,8-diaza-spiro[4,5]dec-2-ene-3-carboxylic acid (2-benzyloxy-cyclopentyl)-amide] | – | 42
15 | CCOC(=O)N1CCC(NC(=O)C2=NOC3(CCN(C(=O)c4ccc(Br)cc4)CC3)C2)CC1 [Example 62, 4-{[8-(4-bromo-benzoyl)-1-oxa-2,8-diaza-spiro[4,5]dec-2-ene-3-carbonyl]-amino)-piperidine-l-carboxylic acid ethyl ester] | 49 | –
16 | Cc1onc(-c2c(F)cccc2Cl)c1C(=O)N1CCC2(CC1)CC(C(=O)NCc1ccccc1)=NO2 [Example 177, 8-[3-(2-chloro-6-fluorophenyl)-5-methyl-isoxazole-4-carbonyl]-1-oxa-2,8-diaza-spiro [4,5]dec-2-ene-3-carboxylic acid benzylamide] | 45 | –
17 | Cc1ccccc1N1CCN(C(=O)C2=NOC3(CCN(S(=O)(=O)c4cccs4)CC3)C2)CC1 [Example 27, [8-(thiophene-2-sulphonyl)-1-oxa-2,8-diaza-spiro[4,5]dec-2-en-3-yl]-(4-o-tolyl-piperazin-1-yl)-methanone] | 74 | –

Row | SMILES | BTX bond, 10 μM, % inhibition [%] | BTX bond, 10 μM, % inhibition (10 µM) [%]
18 | CCOP(=O)(Cc1ccc(NC(=O)C2=NOC3(CCN(S(=O)(=O)Cc4ccccc4)CC3)C2)cc1)OCC [Example 2] | 55 | –
19 | COc1cccc(CCNC(=O)C2=NOC3(CCN(S(=O)(=O)c4ccc(F)cc4)CC3)C2)c1 [Example 124, 8-(4-fluoro-benzenesulphonyl)-1-oxa-2,8-diaza-spiro[4,5]dec-2-ene-3-carboxylic acid [2-(3-methoxy-phenyl)-ethyl]-amide] | 54 | –
20 | O=C(NC(c1ccccc1)c1ccccc1)C1=NOC2(CCN(S(=O)(=O)c3ccc(Cl)s3)CC2)C1 [Example 40, 8-(5-chloro-thiophene-2-sulphonyl)-1-oxa-2,8-diaza-spiro[4,5]dec-2-ene-3 carboxylic acid benzhydryl-amide] | 47 | –
21 | O=C(NCC1COc2ccccc2O1)C1=NOC2(CCN(S(=O)(=O)c3ccc(Cl)s3)CC2)C1 (stereo not shown) [Example 194, 8-(5-chloro-thiophene-2-sulphonyl)-1-oxa-2,8-diaza-spiro[4,5]dec-2-ene-3-carboxylic acid (2,3-dihydro-benzo[1,4]dioxin-2-ylmethyl)-amide] | 68 | –
22 | CC(C)CC(NC(=O)C1=NOC2(CCN(S(=O)(=O)c3cccc(C(F)(F)F)c3)CC2)C1)C(=O)OC(C)(C)C (stereo not shown) [Example 214, 4-methyl-2-{[8-(3-trifluoromethyl-benzenesulphonyl)-1-oxa-2,8-diaza-spiro[4,5]dec-2-ene-3-carbonyl]-amino}-pentanoic acid tert-butyl ester] | 61 | –
23 | CN(C)S(=O)(=O)N1CCC2(CC1)CC(C(=O)NC1CCCC1OCc1ccccc1)=NO2 (stereo not shown) [Example 163, 8-dimethylsulphamoyl-1-oxa-2,8-diaza-spiro[4,5]dec-2-ene-3-acarboxylic cid (2-benzyloxy-cyclopentyl)-amide] | 40 | –
24 | O=C(NCc1cccs1)C1=NOC2(CCN(C(=O)c3cccc(Cl)c3)CC2)C1 [Example 208] | 74 | –
25 | CN(CCc1c[nH]c2ccccc12)C(=O)C1=NOC2(CCN(S(=O)(=O)c3ccc(OC(F)(F)F)cc3)CC2)C1 [Example 16, 8-(4-trifluoromethoxy-benzenesulphonyl)-1-oxa-2,8-diaza-spiro[4,5]dec-2-ene-3 carboxylic acid [2-(1 H-indo1-3-yl)-ethyl]-methyl-amide] | 60 | –
26 | O=C(NCc1ccccc1)C1=NOC2(CCN(C(=O)COCc3ccccc3)CC2)C1 [Example 171, 8-(2-benzyloxy-acetyl)-1-oxa-2,8-diaza-spiro[4,5]dec-2-ene-3-carboxylic acid benzylamide] | 44 | –
27 | O=C(NC1CCCC1)C1=NOC2(CCN(C(=O)c3cccnc3Oc3ccccc3)CC2)C1 [Example 153, 8-(2-phenoxy-pyridine-3-carbonyl)-1-oxa-2,8-diaza-spiro[4,5]dec-2-ene-3-carboxylic acid cyclopentylamide] | 41 | –
28 | O=C(NCc1ccc2c(c1)OCO2)C1=NOC2(CCN(S(=O)(=O)c3ccc(Cl)s3)CC2)C1 [Example 30, 8-(5-chloro-thiophene-2-sulphonyl)-1-oxa-2,8-diaza-spiro[4,5]dec-2-ene-3-carboxylic acid (benzo[1,3]dioxol-5-ylmethyl)-amide] | 56 | –
29 | CC(NC(=O)C1=NOC2(CCN(S(=O)(=O)c3cccs3)CC2)C1)c1ccccc1 (stereo not shown) [Example 8, 8-(thiophene-2-sulphonyl)-1-oxa-2,8-diaza-spiro[4,5]dec-2-ene-3-carboxylic acid (1-phenyl-ethyl)-amide] | 63 | –
30 | COc1cccc(CN2CCC(NC(=O)C3=NOC4(CCN(S(=O)(=O)c5cc(Cl)ccc5Cl)CC4)C3)C2)c1 (stereo not shown) [Example 64] | 91 | –
31 | CN(C)S(=O)(=O)N1CCC2(CC1)CC(C(=O)N1CCN(CCCc3ccccc3)CC1)=NO2 [Example 80, 3-[4-(3-phenyl-propyl)-piperazine-1-carbonyl]-1-oxa-2,8-diaza-spiro[4,5]dec-2-ene-8-sulphonic acid dimethylamide] | 44 | –
32 | O=C(NCc1cccs1)C1=NOC2(CCN(C(=O)C=Cc3ccccc3)CC2)C1 [Example 106] | 62 | –
33 | O=C(NC1CCCC1OCc1ccccc1)C1=NOC2(CCN(S(=O)(=O)c3cccc(C(F)(F)F)c3)CC2)C1 (stereo not shown) [Example 201, 8-(3-trifluoromethyl-benzenesulphonyl)-1-oxa-2,8-diaza-spiro[4,5]dec-2-ene-3-carboxylic acid (2-benzyloxy-cyclopentyl)-amide] | 61 | –
34 | Cc1ccc(S(=O)(=O)N2CCC3(CC2)CC(C(=O)NCc2cc(Cl)cc(Cl)c2)=NO3)cc1 [Example 63, 8-(toluene-4-sulphonyl)-1-oxa-2,8-diaza-spiro[4,5]dec-2-ene-3-carboxylic acid 3,5-dichlorobenzylamide] | 38 | –
